Experiment: Water solubility
Details: lisuride or a salt thereof

## CCN(CC)C(=O)N[C@H]1C=C2c3cccc4[nH]cc(c34)C[C@H]2N(C)C1 [lisuride, 3-(9,10-didehydro-6-methyl-8α-ergolinyl)-1,1-diethyl urea]
  water solubility: good water solubility

From patent publication US20040219191A1, “Use of a dopamine agonist with a short half-life for treating illnesses which can be treated by dopaminergic means” (priority 2000, published 2004)
